Measurements as given in PMC6934184, “Selective DNA-PKcs inhibition extends the therapeutic index of localized radiotherapy and chemotherapy” (The Journal of Clinical Investigation, 2019).

Target: T1, CAMK2D (CaMKII delta) (Homo sapiens, UniProt Q13557)
T1 construct: purchased Thermo Fisher Scientific (Life Technologies) SelectScreen
Test: SelectScreen Z'LYTE
Assay type: biochemical
Outline: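 NU5455 was profiled across the SelectScreen Broad panel of kinase activity and binding assays. Z'LYTE reactions such as CSF1R ran at apparent Km ATP, while the Adapta CAMK1 assay used ATP listed as 10. Values are given as percent.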

T1 sequence (Q13557 whole entry): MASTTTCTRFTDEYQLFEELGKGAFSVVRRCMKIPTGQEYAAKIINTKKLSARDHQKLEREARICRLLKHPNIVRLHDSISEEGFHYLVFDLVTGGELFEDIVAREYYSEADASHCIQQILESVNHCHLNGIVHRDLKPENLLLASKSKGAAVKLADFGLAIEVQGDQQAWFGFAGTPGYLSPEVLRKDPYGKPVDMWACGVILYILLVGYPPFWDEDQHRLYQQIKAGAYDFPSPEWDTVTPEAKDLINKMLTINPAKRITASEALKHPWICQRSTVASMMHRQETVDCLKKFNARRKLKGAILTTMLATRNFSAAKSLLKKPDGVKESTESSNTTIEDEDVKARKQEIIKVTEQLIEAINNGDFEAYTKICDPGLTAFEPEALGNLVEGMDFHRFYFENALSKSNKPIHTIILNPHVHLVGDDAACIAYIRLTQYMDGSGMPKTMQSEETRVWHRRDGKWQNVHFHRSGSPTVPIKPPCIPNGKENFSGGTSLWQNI

## CN(C(=O)CN1CCOCC1)c1ccc2sc3c(-c4cccc5c(=O)cc(N6CC7CCC(C6)O7)oc45)cccc3c2c1 [NU5455]
  inhibition at 1 µM: 9.3%
